Patent publication US8909483B2, “Direct or indirect diagnostic test for helminth infection” (priority 2002, dated 2014)

Columns and labels:
Assay type in all cases: in vivo, outbred Swiss mice
S. mansoni [1] = assay: First vaccination experiment against S. mansoni (Example 4, FIG. 11); settings: 70 μg peptide + MPL-TDM + Al(OH)3, inguinal route, challenge 100 cercariae 60 days after last immunization, perfused 45 days later
Protocol: Percentage protection, {(C−V)/C}×100}, of outbred Swiss mice is given after vaccination and subsequent challenge with 100 cercariae. From left to right the bars correspond to vaccination with peptide 1.2, peptide 1.3, peptide 1.4, peptide 2.1, peptide 2.2, peptide 2.3, peptide 2.4, peptide 2.5, peptide 2.6, r-Sm14, saline extract (SE) administered via the footpad, SE administered via the inguinal route, adjuvant and PBS respectively. All peptides were administered via the inguinal route. All peptides were administered in the presence of the adjuvant monophosphoryl lipid A+trehalose dicorynomycolate (MPL-TDM, Ribi ImmunoChem Research Inc.)+Alum.
In this experiment, outbreed Swiss mice were immunized with two intradermal/subcutaneous doses at an interval of 7 days followed by a booster injection, 21 days later. In the case of the peptides, a dose of 70 μg in the presence of the adjuvant monophosphoryl lipid A+trehalose dimycolate (MPL-TDM, Ribi ImmunoChem Research Inc.) and Al(OH)3 was used for all injections. […]
(§1) For assays of protection against S. mansoni, the animals were challenged subcutaneously with 100 cercariae, 60 days after the last immunization and perfused 45 days later. Overall protection was calculated by the formula {(C−V)/C}×100, where C is the average number of worms in control animals and V is the average number of worms in vaccinated animals.

S. mansoni [2] = assay: Second vaccination experiment against S. mansoni, footpad route (Example 5, FIG. 12); settings: challenge 100 cercariae; for Percentage protection {(C−V)/C}×100: 70 μg peptide + MPL-TDM + Al(OH)3, footpad route, perfused 45 days later; for Performance (protection) compared with recombinant whole protein r-Sm14: footpad route
Protocol: Percentage protection is given as in FIG. 9. From left to right the bars correspond to peptide 1.1, peptide 1.3, peptide 1.4, peptide 2.1, peptide 2.5, r-Sm14, adjuvant and PBS respectively. In this experiment all samples were administered via the footpad. All peptides were administered in the presence of adjuvant: monophosphoryl lipid A+trehalose dicorynomycolate (MPL-TDM, Ribi ImmunoChem Research Inc.)+Alum.
In this experiment an identical protocol as Example 4 was employed for a sub-group of peptides including those which appeared most promising (1.1; 1.3; 1.4 and 2.1) together with 2.5 as a control, but employing the footpad as the route of administration.
as §1, with “Animals” for “For assays of protection against S. mansoni, the animals”

F. hepatica = assay: Fasciola hepatica protection assay (Example 6, FIG. 13); settings: footpad, oral challenge 3 metacercariae, sacrifice 30 days after challenge
Description: Due to the limited number of parasites used for challenge, animals are considered protected when they present sterile immunity, i.e. no adult worms are present after sacrifice. The mean protection is therefore given as the percentage of sterile animals at sacrifice. From left to right the bars correspond to peptide 1.1, peptide 1.3, peptide 1.4, peptide 2.1, peptide 2.5, r-Sm14+adjuvant, r-Sm14, adjuvant and PBS respectively. The adjuvant used was monophosphoryl lipid A+trehalose dicorynomycolate (MPL-TDM, Ribi ImmunoChem Research Inc.)+Alum.
This example refers to the use of some of the peptides described in Example 1 for vaccination against Fasciola hepatica in the Swiss mouse model. For the Fasciola hepatica protection assay each group (10 outbred Swiss mice/group) received three intradermal/subcutaneous doses via the footpad using an identical protocol to that described above for S. mansoni. Animals were vaccinated with either 70 μg of one of the sub-group of peptides described above (1.1, 1.3, 1.4, 2.1 and 2.5), emulsified in Ribi adjuvant (MPL-TDM) and Al(OH)3 or 10 μg of r-Sm14 (in the presence or absence of adjuvant), or an equivalent amount of adjuvant alone. Vaccinated and non-vaccinated control groups were simultaneously challenged orally with 3 metacercariae of F. hepatica 60 days after immunization and the sacrifice of all animals performed 30 days after challenge.

[3] = with adjuvant MPL-TDM + Al(OH)3, 70 μg peptide or 10 μg r-Sm14

EKFSESKLTFDGIVREVDGATMKTT (Oligopeptide derived from the fusion of two peptides from Schistosoma mansoni) [Peptide 2.5, Alternate modification to 2.3]
Percentage protection {(C−V)/C}×100 (S. mansoni [1]): no protection at all and zero

EKNSESKLTQ (Oligopeptide from Schistosoma mansoni) [Peptide 2.1, Loop between β-strands 6 and 7 of Sm14, residues 85 to 94]
Percentage protection {(C−V)/C}×100 (S. mansoni [2]): 50%
Performance (protection) compared with recombinant whole protein r-Sm14 (S. mansoni [2]): equivalent to that seen for the recombinant whole protein
Percentage protection (percentage of sterile animals at sacrifice) (F. hepatica; [3]): 100%

KIGTSVFGTRTSKFDATEMVLDKEE [Peptide 2.6, 2.5 randomized; control peptide of identical amino acid composition]
Percentage protection {(C−V)/C}×100 (S. mansoni [1]): no protection at all and zero

VTVGDVTA (oligopeptide from Schistosoma mansoni) [Peptide 1.1, Loop between β-strands 9 and 10 of Sm14, residues 118 to 125]
Percentage protection {(C−V)/C}×100 (S. mansoni [2]): ~50%
Performance (protection) compared with recombinant whole protein r-Sm14 (S. mansoni [2]): equivalent to that seen for the recombinant whole protein
Percentage protection (percentage of sterile animals at sacrifice) (F. hepatica; [3]): 66.7%

VTVGDVTANFDAVMSKLG (Oligopeptide derived from the fusion of two peptides from Schistosoma mansoni) [Peptide 1.3, Union of 1.1 and 1.2]
Performance (protection) compared with recombinant whole protein r-Sm14 (S. mansoni [2]): equivalent to that seen for the recombinant whole protein
Percentage protection (percentage of sterile animals at sacrifice) (F. hepatica; [3]): 50%

VTVGDVTGGSDAVMSKLG (Oligopeptide derived from the fusion of two peptides from Schistosoma mansoni) [Peptide 1.4, 1.3 modified]
Performance (protection) compared with recombinant whole protein r-Sm14 (S. mansoni [2]): equivalent to that seen for the recombinant whole protein
Percentage protection (percentage of sterile animals at sacrifice) (F. hepatica; [3]): 100%

B1: r-Sm14: recombinant Sm14 protein expressed by the pRSETA-6×His-Sm14 construct in E. coli BL21(DE3) (protein, UniProt P29498 1-133, looked up)
14 kDa fatty acid-binding …: MSSFLGKWKLSESHNFDAVMSKLGVSWATRQIGNTVTPTVTFTMDGDKMTMLTESTFKNLSCTFKFGEEFDEKTSDGRNVKSVVEKNSESKLTQTQVDPKNTTVIVREVDGDTMKTTVTVGDVTAIRNYKRLS
modifications: 6xHis tag
Percentage protection (percentage of sterile animals at sacrifice) (F. hepatica; absence of adjuvant, 10 μg r-Sm14): 100%
Percentage protection (percentage of sterile animals at sacrifice) (F. hepatica; [3]): 100%
